How the values were obtained:
female mice C57BL/6j = experiment: Examination of antifeeding activity: test diets freely fed to mice for 42 days; assay type: in vivo; settings: for Total diet intake during test period: C57BL/6j mice
Method: To examine the antifeeding activity of UHA1028, 8-week-old female mice C57BL/6j (manufactured by CLEA Japan, Inc.) were used. […] The mice were freely fed for 42 days. During the feeding period of test diets, the diet intake and the weight were measured twice a week.
A required amount of the UHA1028 was obtained by repeating the formation and isolation described in Example 1.
In Table 2, the amount of each component is represented as g per kg of diet.
The test diets fed to the control groups are, a normal diet, a high-fat diet, and a high-fat diet containing resveratrol but containing no test substance respectively.

[1] = tested on: agouti-related peptide (AgRP); settings: reporter assay in cultured cells; cited from earlier work
NPY = settings: reporter assay in cultured cells; cited from earlier work
[2] = 0.4% test substance in high-fat diet, 42 days

Compound	Total diet intake during test period (female mice C57BL/6j; [2]) [g]	antifeeding activity on long-term administration (female mice C57BL/6j; administered for a long period of time, as in the examples)	expression of AgRP [1]	expression of NPY (NPY)	change in diet intake (FIG. 2) (female mice C57BL/6j; 0.05% UHA1028-containing high-fat diet versus 0.4% resveratrol intake group)	Total diet intake during test period (female mice C57BL/6j; 0.05% test substance in high-fat diet, 42 days) [g]	Total diet intake during test period (female mice C57BL/6j; 0.1% test substance in high-fat diet, 42 days) [g]	Total diet intake during test period (female mice C57BL/6j; 0.2% test substance in high-fat diet, 42 days) [g]	weight increase (FIG. 3) (female mice C57BL/6j; 0.4% UHA1028 in high-fat diet versus 0.4% resveratrol intake group)	diet intake versus the other groups (female mice C57BL/6j; UHA1028 intake groups 0.05-0.4% in high-fat diet, Table 3)	anatomy of the mice at the end of the test (organs) (female mice C57BL/6j; four UHA1028 intake groups (0.05-0.4%), 42 days)
Oc1ccc(C=Cc2cc(O)cc(O)c2)cc1 [Resveratrol, resveratrol, reference compound]	106.7	very low antifeeding activity	suppressed the expression of AgRP and NPY	suppressed the expression of AgRP and NPY	–	–	–	–	–	–	–
COc1cc(C(C)c2c(O)cc(/C=C/c3ccc(O)cc3)cc2O)cc(OC)c1O (stereo not drawn) [UHA1028]	97.5	–	–	–	significantly reduced as compared with the resveratrol intake group	88.4	87.1	99.9	significantly suppressed as compared with the resveratrol intake group	significantly lower than those of the other groups	no contraction or hypertrophy of organs was observed

Source: US20150321985A1, “(HYDROXYSTILBENE COMPOUND)-(SINAPINIC ACID) REACTION PRODUCT HAVING ANTIFEEDING ACTIVITY” (UHA MIKAKUTO CO., LTD., priority 2012, published 2015)
